The source of these data is patent publication US20020082448A1, “Aminoguanidine carboxylates for the treatment of non-insulin-dependent diabetes mellitus” (The Upjohn Company, priority 1999, published 2002).

SMILES strings stand for the structures. Read-outs that look alike come from different tables or passages of the source.

For assay [1], the system named is KKAy mice. Nature of the assay: Reduction of non-fasting blood glucose in KKAy mice, compound admixed in chow. The class given is in vivo, mouse. To be noted: for % Change Blood Glucose: Day 3 vs Day-1. From the text: (§1) KKAy mice are rodent models of NIDDM and obesity (Chang, Wyse, Copeland, Peterson, and Ledbetter, 1986). A pre-treatment blood sample was obtained from the retro-orbital sinus and the mice arranged in groups of 6 so that the mean pre-treatment blood glucose level was the same on average in all groups. […] Control mice received unsupplemented chow. On Day 0, the mice were weighed and provided control chow or chow supplemented with test compounds. After 3 days of consuming control chow or chow supplemented with test compounds, a blood sample was obtained for determination of the glucose concentration and the animals were weighed for determination of weight loss. Food consumption was measured by weighing the food provided at the beginning of the study and the food residue at the end of the study. Food consumption was calculated by subtracting the weight of the residue from the weight of the food provided. […] Blood glucose data are expressed as the average blood glucose concentration in the test group divided by the average blood glucose level in the control group (treatment/control or T/C). Compounds resulting in T/C values equal to or less than 0.90 are considered to be active anti-hyperglycemic agents. Weigh loss data are expressed as percent change in body weight. Compounds resulting in a decrease of 1% or more less than control in body weight over three days are considered to be active anti-obesity agents.

The nature of assay [2]: Body weight change in KKAy mice, compound admixed in chow. It counts as in vivo, mouse. Particulars: for % Change Body Weight: Day 3 vs Day-1.
Source text: as §1, with “provided. Drug intake was calculated by multiplying food consumption by 0.5%.” for “provided.”

The target in another assay is human serum albumin (Homo sapiens, UniProt P02768). Nature of the assay: Non-enzymatic glycosylation of human serum albumin, [14C]-glucose incorporation. To be noted: for non-enzymatic glycosylation of human serum albumin in vitro: Table 8 assay; for % [14C-glucose] Incorporated: test compound 19.1 mM, 100 mM [14C]-D-glucose, human serum albumin, 37° C., 8 days, control 1.50. It counts as biochemical.
Sequence of human serum albumin (P02768 25-609): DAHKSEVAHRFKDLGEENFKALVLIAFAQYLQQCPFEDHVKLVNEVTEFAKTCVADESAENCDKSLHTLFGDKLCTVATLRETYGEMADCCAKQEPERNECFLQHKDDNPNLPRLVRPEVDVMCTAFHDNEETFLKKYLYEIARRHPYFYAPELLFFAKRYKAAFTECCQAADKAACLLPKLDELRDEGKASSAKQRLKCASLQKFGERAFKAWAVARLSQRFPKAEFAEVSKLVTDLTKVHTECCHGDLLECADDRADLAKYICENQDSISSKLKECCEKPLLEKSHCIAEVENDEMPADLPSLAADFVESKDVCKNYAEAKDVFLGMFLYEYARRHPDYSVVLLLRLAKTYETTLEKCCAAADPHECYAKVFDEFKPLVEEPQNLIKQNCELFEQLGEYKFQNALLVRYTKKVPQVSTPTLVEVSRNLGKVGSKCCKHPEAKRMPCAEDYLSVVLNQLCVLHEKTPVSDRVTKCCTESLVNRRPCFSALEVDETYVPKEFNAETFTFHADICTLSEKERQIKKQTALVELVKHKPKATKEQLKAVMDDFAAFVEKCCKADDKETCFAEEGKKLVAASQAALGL

Assay [3] deals with mice. To be noted: cited from earlier work.
For assay [4], the system named is rats. Particulars: cited from earlier work; for effect on hyperglycemia: chronic oral.
For assay [5] the following is noted: cited from earlier work.
In a further assay the test system is proteins. To be noted: in vitro; cited from earlier work.
For assay [6], the system named is advanced glycosylation endproducts. To be noted: in vivo; cited from earlier work.
For assay [7], the system named is mice. Particulars: cited from earlier work; for effect on hyperglycemia / effect on blood glucose concentration: chronic oral; for effect on blood glucose concentration: 250 mg/kg/day.
The conditions of assay [8]: cited from earlier work. This is another data set of the same source.
For assay [9] the following is noted: cited from earlier work. The source holds these as a separate data set.
Assay [10] has as its system rats. To be noted: cited from earlier work.
For assay [11], the system named is erythrocyte plasma membranes. Particulars: incubated with glucose in vitro, cited from earlier work.
For the next assay, the system named is C57BL mice. Nature of the assay: Intraperitoneal glucose tolerance in non-diabetic C57BL mice. The class given is in vivo, mouse. To be noted: for Blood Glucose: C57BL mice, 100 mg/kg oral gavage.
The subject of assay [12] is KKAy mice. Nature of the assay: Intraperitoneal glucose tolerance in diabetic KKAy mice. It counts as in vivo, mouse. Particulars: for Blood Glucose: KKAy mice, 100 mg/kg oral gavage.
The mark [13] stands for this setting: 0.5% in chow (approx. 500 mg/kg/day).
Where [14] appears, read: normal or alloxan-diabetic rats.
Where [15] appears, read: 0.03% in chow (approx. 30 mg/kg/day).
[16] abbreviates: 0.06% in chow (approx. 60 mg/kg/day).
The mark [17] stands for this setting: 0.10% in chow (approx. 100 mg/kg/day).
Where [18] appears, read: 0.2% in chow (approx. 200 mg/kg/day).
[19] abbreviates: 0.3% in chow (approx. 300 mg/kg/day).
Where [20] appears, read: 0.4% in chow (approx. 400 mg/kg/day).
[21] abbreviates: 30 min after 2 g/kg glucose I.P.
The mark [22] stands for this setting: 60 min after 2 g/kg glucose I.P.
Where [23] appears, read: 90 min after 2 g/kg glucose I.P.
Where [24] appears, read: fasted 16-17 h, Time 0 (before 2 g/kg glucose I.P.).

On to `N=C(N)NCCC(=O)O` [3-Guanidinopropionic acid], for which the “dose required to reduce the blood glucose level by 20%” value with KKAy mice [1] was found to be 130 mg/kg/day. In addition, the “% Change Blood Glucose” value in the assay on KKAy mice [1] (setting [13]) is given as −38.4 ± 4.4 %. Further, the “% Change Body Weight” value in assay [2] (setting [13]) was −5.4 ± 0.81 %. Further, at human serum albumin, the “non-enzymatic glycosylation of human serum albumin in vitro” value (“non-enzymatic glycosylation … in vitro” for short) is given as “no effect” and the “% [14C-glucose] Incorporated” value worked out at 1.52%. Besides, the glucose tolerance result with mice [3] (diabetic KKAy mice, 1% admixture in chow, approximately 1000 mg/kg/day) was “improves glucose tolerance”.

With `N=C(N)NN` [Aminoguanidine], at human serum albumin, the “non-enzymatic glycosylation … in vitro” value is listed as “effective” and the “% [14C-glucose] Incorporated” value is 0.96 (P < 0.05 vs. Control) %. Also, the “effect on blood glucose level” value in the assay on rats [4] (normal rodents or rats made diabetic by alloxan or streptozotocin) was “no effect”. In addition, the “effect on body weight” value in assay [5] (human and rats (Baylin et al.)) is “increase in body weight”. Moreover, the “effect on body weight” value in [5] (normal or diabetic rats) is recorded as “no effect”. For the same compound, the “non-enzymatic glycosylation of proteins” value with proteins is on record as “inhibit”. The “formation of advanced glycosylation endproducts” value in assay [6] is reported as “inhibit”.

`N/N=C(\N)NN` [Diaminoguanidine]: the “effect on blood glucose level” value in the assay with rats [4] (setting [14]) is “no effect”. For the same compound, in assay [5] (setting [14]), the “effect on body weight” value is given as “does not affect”. For the same compound, the “non-enzymatic glycosylation of proteins” value with proteins is given as “inhibit”. In assay [6], the “formation of advanced glycosylation endproducts” value was “inhibit”.

On to `CN(C)C(=N)N=C(N)N` [Metformin], for which the effect on hyperglycemia result with rats [4] (Zucker fa/fa rats, 350 mg/kg/day) is given as “reduces hyperglycemia”; in the assay with rats [4] (neonatal streptozotocin-diabetic rats, 100 mg/kg/day), “reduces hyperglycemia”; in the assay on mice [7] (DBM mice, 400 mg/kg/day), “reduces hyperglycemia”; in the assay with mice [7] (KKAy mice, 300 mg/kg/day or more), “reduces hyperglycemia”. Also, the “effect on blood glucose level” value in the assay with rats [4] (rats, acute administration, 264 mg/kg) is “did not affect”. Moreover, in the assay on mice [7] (KKAy mice (Meglasson et al.)), the “dose required to reduce the blood glucose level by 25%” value was 300 mg/kg/day. Also, the “effect on blood glucose concentration” value in the assay with mice [7] (diabetic ob/ob mice), with mice [7] (normal mice) and with mice [7] (streptozotocin-diabetic mice) was “did not affect” each time. Also, the “effect on body weight” value in assay [8] (KKAy mice, 1700 mg/kg/day, not at lower doses) was “statistically significant weight loss”; in [8] (diabetic ob/ob mice, 240 mg/kg/day), “did not cause weight loss”; in assay [8] (streptozotocin-diabetic mice, 60 mg/kg/day), “did not cause weight loss”; in assay [9] (non-insulin dependent diabetic patients treated for one year (Bailey)), “cause weight loss”; in assay [9] (obese non-insulin dependent diabetic patients, similar length of time (Multi-centre Study)) it was “no significant effect”. For the same compound, the glucose tolerance result in the assay with rats [10] (normal rats, 750 mg/kg) is reported as “not affect glucose tolerance”; in the assay with mice [3] (normal mice, 50 mg/kg) it was “not affect glucose tolerance”. Further, the oral glucose tolerance entry with rats [10] (streptozotocin-diabetic rats, 250 mg/kg) is recorded as “oral glucose tolerance was increased”; in the assay with mice [3] (normal mice, 250 mg/kg) it was “oral glucose tolerance was increased”. The “non-enzymatic glycosylation of erythrocyte plasma membranes” value is “inhibit non-enzymatic glycosylation” in [11] (0.5 and 5 micromoles per liter); “reverse effect” in [11] (50 and 100 micromoles per liter).

As for `NNC(=NCC(=O)O)NN` [N-(dihydrazinomethylene)-glycine], in the assay with KKAy mice [1], the “dose for a similar (25%) reduction in the blood glucose level” value lay in the range of 30 to 60 mg/kg/day. Also, the “dose required to reduce the blood glucose level by 20%” value in the assay on KKAy mice [1] was determined as 30 mg/kg/day. Further, the “% Change Blood Glucose” value in the assay with KKAy mice [1] (setting [15]) was −13.5 ± 10.5%; in the assay with KKAy mice [1] (setting [16]), −34.9 ± 17.1 %; in the assay with KKAy mice [1] (setting [17]) it was −45.2 ± 6.4 %; in the assay with KKAy mice [1] (setting [18]), −69.9 ± 3.2 ¶ %; in the assay with KKAy mice [1] (setting [19]) it was −70.4 ± 1.5 ¶ %; with KKAy mice [1] (setting [20]), −70.3 ± 3.9 ¶ %. For the same compound, the “decrease in the blood glucose level” value with KKAy mice [1] (60 mg/kg/day, 4 days) amounted to 35%. For the same compound, the “% Change Body Weight” value in [2] (setting [15]) is −0.92 ± 0.35%; in assay [2] (setting [16]) it was −1.51 ± 2.11%; in assay [2] (setting [17]), −4.04 ± 0.76 %; in assay [2] (setting [18]), −8.22 ± 1.05 %; in assay [2] (setting [19]), −9.94 ± 1.62 ¶ %; in assay [2] (setting [20]), −10.3 ± 0.97 ¶ %. Besides, the “decrease in the body weight” value in [2] (100 mg/kg/day, 4 days) amounted to 4%. Also, the “Blood Glucose” value in the assay on C57BL mice (setting [21]) turned out to be 174 ± 17 mg/dL; with C57BL mice (setting [22]), 153 ± 7 mg/dL; in the assay on C57BL mice (setting [23]) it was 161 ± 19 mg/dL; with C57BL mice (setting [24]), 114 ± 9 mg/dL; in the assay with KKAy mice [12] (setting [21]) it was 383 ± 38 mg/dL; with KKAy mice [12] (setting [22]) it was 396 ± 63 mg/dL. Further, the entries for the “Blood Glucose” value in the assay on KKAy mice [12] (setting [23]) and in the assay on KKAy mice [12] (setting [24]) were 392 ± 67 mg/dL and 115 ± 16 mg/dL, respectively. Besides, in the assay on C57BL mice (normal C57BL mice, 100 mg/kg), the “fasting blood glucose concentration” value is “decreased”. The glucose tolerance result is “improved glucose tolerance” in the assay with C57BL mice (normal C57BL mice, 100 mg/kg) and “improved glucose tolerance” in the assay on KKAy mice [12] (diabetic KKAy mice, 100 mg/kg). For the same compound, the “non-enzymatic glycosylation … in vitro” value at human serum albumin is recorded as “reduced”. For the same compound, the “% [14C-glucose] Incorporated” value on human serum albumin is 0.81 (P < 0.05 vs. Control) %.

With `Cl.N=C(N)NNCC(=O)O` [[2-(aminoiminomethyl)hydrazino]-, monohydrochloride acetic acid], at human serum albumin, the “non-enzymatic glycosylation … in vitro” value is “reduced” and the “% [14C-glucose] Incorporated” value is recorded as 1.29 (P < 0.10 vs. Control) %.

Take `CCCCNC(=N)NC(=N)N` [buformin]: the “effect on blood glucose level” value in the assay with rats [4] (rats, acute administration, 132 mg/kg) is given as “did not affect”.
